From US8853274B1, “Compositions and methods for targeting glioblastomas cells” (Vanderbilt University, priority 2011, dated 2014)

Columns and labels:
[1] = system: T4302 CD133+ cells; experiment: Cell growth / viability on day 5 (CellTiter-Glo); format: cell-based, human; conditions: 100 nM; with or without 3 Gy radiation
Procedure: (§1) (A, B) T4302 CD133+ cells were treated with 100 nM RO4929097 (GSI) and/or 100 nM tipifarnib (FTI) for 4 hours prior to 3 Gy radiation. (A) Cell growth on day 5 and (B) caspase 3/7 activation on day 3 were determined as described in FIG. 4. #: p<0.001 by one-way ANOVA, combo vs. single agents. (C) The effects of GSIs and FTI against growth of T4302 CD133− cells were determined as described in panel A. (D, E) T4302 CD133+ cells were treated with GSI, FTI, or a 1:1 mixture at different concentrations (ranging from 3000 nM to ˜0.5 nM, 1:3 dilution)±3 Gy radiation. Cell viability was determined at 5 days after treatment in comparison to vehicle-treated groups. […] (F) T4302 CD 133+ cells were treated by GSI±FTI with a 2-fold dilution. Neurospheres were countered on day 10, and normalized to the vehicle-treated group.
GSC sensitivity to drug(s) was primarily measured as inhibition of cell viability (survival). Cells were treated with drugs alone or in combination±3-Gy radiation at indicated concentrations. Cell viability is determined by CellTiter-Glo kit (Promega) after 5-day incubation. IC50 values are calculated by the GraphPad Prism5 software.

[2] = system: HIF1α and HIF2α; experiment: Immunoblot of HIF1α/HIF2α under hypoxia in T4302 CD133+ cells; format: cell-based, human; conditions: 200 nM 24 h, then 2% O2 16 h
Procedure: (A) T4302 CD133+ cells were treated with 200 nM RO4929097 (GSI), and irradiated 4 hours later. Cells were cultured for two days and lysed for immunoblotting. (B) T4302 CD133+ cells were treated with 200 nM GSI or FTI±radiation. Cells were lysed 2 days after treatment. (C) T4302 CD133+ cells were treated with 200 nM GSI±FTI for 24 hours, and left under normoxia or in 2% O2 for 16 hours before being lysed for immunoblotting.

[3] = system: cleaved Notch1; experiment: IHC staining for cleaved Notch1 in intracranial tumors; format: in vivo, Mice; conditions: oral 30 mg/kg/day, 7 days
Procedure: (A, B) T4302 CD133+ cells were treated with 100 nM GSI±FTI for 48 hours and lysed in RIPA buffer. Mice bearing intracranial T4302 tumors were orally treated with 30 mg/kg/day GSI once a day (q.d.)±100 mg/kg/day FTI twice a day (b.i.d.) for 7 days. Brains were resected and homogenized in RIPA buffer. All lysates were blotted with an antibody specific to prelamin A. (B) Additional brains were fixed and resected for IHC staining for cleaved Notch1. (C) T4302 CD133+ cells were infected with lentivirus expressing firefly luciferase and selected with puromycin for two days. Athymic nude mice were intracranially implanted with 5,000 cells, maintained for 10 days, and treated with GSI±FTI for 20 days as described above. In a separated experiment, animals were treated by the same protocol, except they were given 2 doses of 4 Gy X-ray irradiation on day 11 and day 12, 4 hours after drug administration. These mice were on drugs for 30 days. The median survival was calculated by the GraphPad Prism 5 software. (D) Animals in the unirradiated experiment were tracked for their tumor progression by bioluminescence imaging. The Y axis is set in a log scale. (E,F) The survival curves of these two experiments are shown.

[4] = system: Ras; experiment: Active Ras pull-down assay in T4302 CD133+ cells; format: cell-based, human; conditions: 200 nM; after radiation exposure
Procedure: (A) T4302 CD133+ cells were infected with NICD2-lentivirus and treated with 2 μM DAPT±3 Gy radiation. Cells were collected at 24 or 48 hours after treatment. Protein levels of phospho-s473 Akt, total Akt and actin were blotted. (B) Control CD133+ cells or NICD2-expressing cells were pre-treated with 10 μM PI3K inhibitor (LY294002), or 50 μM Akt inhibitor (SH-6) for 4 hours prior to radiation. Relative caspase 3/7 activity was determined at 48 hours after radiation as described in FIG. 3C. (C) T4302 CD133+ cells were treated with 200 nM RO4929097 (GSI)±3 Gy. Active Ras levels were determined by a Ras Pull Down Assay kit using a pan-Ras antibody (Pierce). (D, E) T4302 cells were infected with H-Ras V12-lentivirus. Cells were treated with 200 nM RO4929097 (GSI)±3 Gy. Growth of cells was determined at day 5 after treatment (CellTiter-Glo assay, Promega). Relative caspase 3/7 activity was determined at 48 hours after treatment. […] Equal amounts of protein were resolved by SDS-PAGE and analyzed by immunoblotting with indicated antibodies. *: p<0.05 by Student's t-test.
Potential mechanisms that mediate Notch-dependent Akt activation were examined next. […] Using an active Ras pull-down assay kit (Pierce), the activation status of Ras signaling can be determined as the amount of Ras-GTP co-purified with a GST-tagged Ras-binding domain of c-Raf. […]

[5] = system: T4302 CD133− cells; experiment: Growth / survival of non-stem GBM cells; format: cell-based, human; conditions: day 5
Procedure: as §1
Tumor cells are enzymatically dissociated from freshly collected subcutaneous xenograft tumors and cultured overnight before sorting. The CD133− and CD133+ fractions are separated either by magnetic sorting using the CD133 Microbead kit (Miltenyi Biotech), or labeled with APC-conjugated CD133 antibody (Miltenyi Biotech) and sorted by flow cytometry. CD133+ cells are maintained in neurobasal media supplemented with 2% B-27, 20 ng/ml EGF, and 20 ng/ml bFGF. […]

Question: Which results are given for `CC(C)(C(=O)NCC(F)(F)C(F)(F)F)C(=O)N[C@@H]1C(=O)Nc2ccccc2-c2ccccc21` [RO4929097]?
Answer: degree of growth inhibition after 5-day treatment, in words [1]: weaker growth inhibition; HIF1α and HIF2α levels upon hypoxia stimulation [2]: moderate reduction; levels of cleaved Notch1 in intracranial tumors (IHC) [3]: decreased the levels of cleaved Notch1; active Ras levels [4]: decreased active Ras levels; effect on growth of CD133− non-stem GBM cells [5]: largely insensitive
